According to patent US12123009B2, “Methods and compositions for PPO herbicide tolerance in plants” (Monsanto Technology LLC, priority 2015, dated 2024):

How the values were obtained:
[1] = target: Waterhemp (Amaranthus tuberculata) protoporphyrinogen oxidase (PPO), wild type; assay: PPO enzyme assay (plastid extract); assay type: biochemical; conditions: 3 μM protogen; pH 7.4, 30° C.; read-out: S-3100 IC50
[2] = system: transgenic maize expressing HemG PPO enzymes; assay: Transgenic Maize Herbicide Tolerance II (R0 plants sprayed); assay type: in vivo; conditions: 40 grams/ha; for Average Injury: V5, 7 days
Text: (§1) H_N60 (SEQ ID NO:3). […] These five constructs had the same promoter plus leader plus intron combination, with two different targeting peptide (TP) sequences, and the same 3′UTR sequence. Leaf samples were taken from the R0 plants and analyzed by PCR to determine the transgene copy number. Single copy plants for up to 12 unique events per construct were transplanted to pots, selfed and outcrossed to generate R1 and F1 seed, respectively, for future testing. Multi-copy plants and extra single copy plants were sprayed with 40 grams/ha 5-3100 at approximately the V5 growth stage and injury ratings were taken 7 days after treatment. The average percent (%) injury for all plants expressing each PPO enzyme and the number of plants that were deemed highly tolerant (less than 10% injury) was noted, where each plant is a unique single or multi-copy transformant.

[3] = system: maize, non-transgenic or F1 containing H_N10 (SEQ ID NO: 4); assay: Efficacy field trial of F1 maize; assay type: in vivo
Procedure: This F1 population was segregating (50% hemizygous and 50% null) and selection for transgenic plants was not conducted prior to injury ratings. The overall average injury ratings for such a population are expected to be higher than a homogenous transgenic population since it is difficult to discern non-transgenic plants from transgenic plants. The trials were conducted at two locations with two replicates and 3 treatments per construct. Non-transgenic maize plants were used as a negative control. The herbicide application treatments were as follows: Treatment 1 was 0.036 lb ai/acre S-3100 applied at V2 followed by (fb) V4 fb V8; Treatment 2: was 0.072 lb ai/acre S-3100 applied at V2 fb V4 fb V8; Treatment 3: was 0.144 lb ai/acre S-3100 applied at V2 fb V4 fb V8. Crop Injury Percent ratings were assessed at the V2 growth stage (CIPV2) and at the V4 growth stage (CIPV4) at 5 to 7 days after treatment (the error V2 and error V4 are half of the least significant difference (LSD)). The crop injury ratings were combined for both locations.

[4] = target: Soybean (Glycine max) protoporphyrinogen oxidase (PPO), wild type; assay: PPO enzyme assay (plastid extract); assay type: biochemical; conditions: 3 μM protogen; pH 7.4, 30° C.; read-out: S-3100 IC50
[5] = system: transgenic F1 maize expressing H_N10 (SEQ ID NO:4); assay: F1 maize greenhouse herbicide tolerance; assay type: in vivo; conditions: 40 grams/ha, V3, seven days
Procedure: The plants were treated with 40 grams/ha S-3100 at the V3 growth stage and injury ratings were taken seven days after treatment.

[6] = system: soybean, non-transgenic or expressing H_N10 (SEQ ID NO: 4); assay: Green house S-3100 efficacy screen of R1 soybean; assay type: in vivo
Procedure: Single-copy transgenic R1 soybean plants in the greenhouse were sprayed with one of three herbicide application rates: Treatment 1 was 5 grams ai/ha S-3100 applied at V4 followed by (fb) R1; Treatment 2 was 10 grams ai/ha S-3100 applied at V4 fb R1; Treatment 3 was 30 grams ai/ha S-3100 applied at V4 fb R1. Crop Injury Percent at V2 (CIPV2) ratings were assessed ten days after treatment. Non-transgenic plants had average injury ratings of 89% to 100% and were not available for rating at the R1 growth stage.

[7] = target: Maize (Zea mays) protoporphyrinogen oxidase (PPO), wild type; assay: PPO enzyme assay (plastid extract); assay type: biochemical; conditions: 3 μM protogen; pH 7.4, 30° C.; read-out: S-3100 IC50
[8] = system: leaf discs of transgenic maize expressing H_N10 (SEQ ID NO: 4); assay: Leaf disc assay, maize; assay type: in vivo; conditions: H_N10, construct 6; 1 micromolar
Procedure: A leaf-disc assay was employed for rapid and minimally damaging assessment of herbicide tolerance in transgenic plants expressing a recombinant PPO enzyme. Leaf tissue was sampled from the youngest fully-green leaf of corn and soybean plants. Five 4-mm diameter leaf discs were cut from the leaf samples using a disposable biopsy punch with a plunger (Integra® Miltex®, Inc., York. Pennsylvania) and the leaf discs were placed into one ml of incubation solution (1 mM MES, pH 6.5, 1% w/v sucrose, 1% (v/v) acetone) in 24-well polystyrene plates with lids. For herbicide tolerance analysis, S-3100 was added to the incubation solution to a final concentration of 1 micromolar. Vacuum infiltration was applied and plates of leaf discs were incubated in continuous darkness for one day at room temperature (23-24° C.) followed by one (soybean) or two (corn) days continuous light incubation under overhead fluorescent and incandescent bulbs (520 uE) at 26-27° C. Leaf disc injury was then scored visually on a scale from 0 (lowest injury) to 4 (highest injury), with lower scores indicating better tolerance to the PPO herbicide.

transgenic maize plants = assay: R0 transgenic maize 40 g/ha S-3100 spray test; assay type: in vivo
Text: as §1

[9] = H_N10, construct 6, Trt 1, 0.036 lb ai/acre
[10] = H_N10, construct 6, Trt 2, 0.072 lb ai/acre
[11] = H_N10, construct 6, Trt 3, 0.144 lb ai/acre
[12] = H_N10, construct 16, Trt 1, 0.036 lb ai/acre
[13] = H_N10, construct 16, Trt 2, 0.072 lb ai/acre
[14] = H_N10, construct 16, Trt 3, 0.144 lb ai/acre
[15] = wildtype, Trt 1, 0.036 lb ai/acre V2 fb V4 fb V8
[16] = wildtype, Trt 2, 0.072 lb ai/acre V2 fb V4 fb V8
[17] = wildtype, Trt 3, 0.144 lb ai/acre V2 fb V4 fb V8
[18] = 40 grams/ha S-3100 at V5, 7 days after treatment, R0 plants

With `CCOC(=O)COc1ncccc1Oc1cc(-n2c(=O)cc(C(F)(F)F)n(C)c2=O)c(F)cc1Cl` [S-3100, ethyl [3-2-chloro-4-fluoro-5-(1-methyl-6-trifluoromethyl-2,4-dioxo-1,2,3,4-tetrahydropyrimidin-3-yl)phenoxy]-2-pyridyloxylacetate] the IC50 [1] was 9 nM, the “Average Injury” value ([2]; H_N10 (SEQ ID NO 4), construct 6) was 39.5% and the “Highly Tolerant (less than 10% injury)” value ([2]; H_N10 (SEQ ID NO 4), construct 6, of 139 plants) was 31 plants. For the same molecule, the “Average Injury” value ([2]; H_N40 (SEQ ID NO 6), construct 23) was 47.0%, the “Highly Tolerant (less than 10% injury)” value ([2]; H_N40 (SEQ ID NO 6), construct 23, of 98 plants) was 53 plants and the “Average Injury” value ([2]; H_N60 (SEQ ID NO 3), construct 20) was 55.8%. The “Highly Tolerant (less than 10% injury)” value ([2]; H_N60 (SEQ ID NO 3), construct 20, of 86 plants) was 19 plants, the “Average Injury” value ([2]; H_N90 (SEQ ID NO 1), construct 21) was 31.4% and the “Highly Tolerant (less than 10% injury)” value ([2]; H_N90 (SEQ ID NO 1), construct 21, of 99 plants) was 44 plants. For the same molecule, the “Average Injury” value ([2]; H_N110 (SEQ ID NO 10), construct 22) was 43.0%, the “Highly Tolerant (less than 10% injury)” value ([2]; H_N110 (SEQ ID NO 10), construct 22, of 94 plants) was 0 plants and the “CIPV2 (Crop Injury Percent, V2)” value [3, 9] was 37.5%. For the same molecule, the “CIPV4 (Crop Injury Percent, V4)” value [3, 9] was 0%, the “CIPV2 (Crop Injury Percent, V2)” value [3, 10] was 37.5% and the “CIPV4 (Crop Injury Percent, V4)” value [3, 10] was 0%. The “CIPV2 (Crop Injury Percent, V2)” value [3, 11] was 50%, the “CIPV4 (Crop Injury Percent, V4)” value [3, 11] was 0% and the “CIPV2 (Crop Injury Percent, V2)” value [3, 12] was 96.3%. For the same molecule, the “CIPV4 (Crop Injury Percent, V4)” value [3, 12] was 98.5%, the “CIPV2 (Crop Injury Percent, V2)” value [3, 13] was 99.5% and the “CIPV4 (Crop Injury Percent, V4)” value [3, 13] was 99.5%. The “CIPV2 (Crop Injury Percent, V2)” value [3, 14] was 99.5%, the “CIPV4 (Crop Injury Percent, V4)” value [3, 14] was 99.5% and the “injury following V2 and V4 application” value ([3]; non-transgenic and construct 16, all three treatments) was 94.6-99.5%. For the same molecule, the “CIPV2 (Crop Injury Percent, V2)” value [3, 15] was 94.6%, the “CIPV4 (Crop Injury Percent, V4)” value [3, 15] was 99% and the “CIPV2 (Crop Injury Percent, V2)” value [3, 16] was 99.5%. The “CIPV4 (Crop Injury Percent, V4)” value [3, 16] was 99.5%, the “CIPV2 (Crop Injury Percent, V2)” value [3, 17] was 99.5% and the “CIPV4 (Crop Injury Percent, V4)” value [3, 17] was 99.5%. For the same molecule, the IC50 [4] was 4 nM, the “events producing highly tolerant plants (10% or less injury)” value ([5]; H_N10, construct 6, out of 18 events) was 13 events and the “events producing highly tolerant plants (10% or less injury)” value ([5]; H_N10, construct 16) was “no events”. The “% Injury R1 stage” value ([6]; H_N10, construct 1, 5 g/ha) was 3%, the “% Injury V4 stage” value ([6]; H_N10, construct 1, 5 g/ha) was 4.2% and the “% Injury R1 stage” value ([6]; H_N10, construct 1, 10 g/ha) was 6.5%. For the same molecule, the “% Injury V4 stage” value ([6]; H_N10, construct 1, 10 g/ha) was 7.8%, the “% Injury R1 stage” value ([6]; H_N10, construct 1, 30 g/ha) was 15.7% and the “% Injury V4 stage” value ([6]; H_N10, construct 1, 30 g/ha) was 9.4%. The “% Injury V4 stage” value ([6]; Nontransgenic, 5 g/ha) was 89%, the “% Injury V4 stage” value ([6]; Nontransgenic, 10 g/ha) was 98% and the “% Injury V4 stage” value ([6]; Nontransgenic, 30 g/ha) was 100%. The IC50 [7] was 3 nM and the “average leaf disc score (0 lowest to 4 highest injury)” value [8] was 0.4.

B1: H_N90: microbial HemG protoporphyrinogen oxidase, SEQ ID NO:1 (SEQ ID NO:11 lacking start methionine; variants 18, 19) (protein, listed as Enterobacter cloacae)
chain: MKALVLYSTRDGQTHAIASYIASCMKEKAECDVIDLTHGEHVNLTQYDQVLIGASIRYGHFNAVLDKFIKRNVDQLNNMPSAFFCVNLTARKPEKRTPQTNPYVRKFLLATPWQPALCGVFAGALRYPRYRWIDKVMIQLIMRMTGGETDTSKEVEYTDWEQVKKFAEDFAKLSYKKAL
B1 was tested, and the “Average Injury” value (transgenic maize plants; [18]) was 31.4%, the “Highly Tolerant (number of plants with less than 10% injury)” value (transgenic maize plants; [18]) was 44 and the “injury rates when expressed in transgenic plants (crop tolerance to a PPO herbicide)” value (transgenic maize plants; R0 transgenic maize data) was “reduced injury rates”.
